The numbers were not newly measured in US7851464B2, “Spirolactam aryl CGRP receptor antagonists” (Merck Sharp & Dohme Corp., priority 2005, dated 2010), which cites them from elsewhere.

Ends that are not written are not given here.

In one data set the test system is rats. To be noted: prior administration, Williamson et al. 1997.
For another data set, the system named is rat. The note with it: Escott et al. 1995.
Another data set deals with marmoset. The note with it: Doods et al. 2000.

Consider “CGRP(8-37): a peptide CGRP antagonist; fragment of CGRP that lacks seven N-terminal amino acid residues (VTHRLAGLLSRSGGVVKNNFVPTNVGSKAF; ends and bridges not checked; UniProt P06881 90-119, looked up, fragment)”, for which the “effect on increase of middle meningeal artery diameter” value in the data set with rats is “blocked”. In the data set on rat, the “effect on increase of facial blood flow” value was “inhibited”.

For `NCCCC[C@H](NC(=O)[C@@H](Cc1cc(Br)c(O)c(Br)c1)NC(=O)N1CCC(N2Cc3ccccc3NC2=O)CC1)C(=O)N1CCN(c2ccncc2)CC1` [BIBN4096BS], the “effect on increase of facial blood flow” value with marmoset is “blocked”.
